Source: patent US7001983B1, “Antipathogenic synthetic peptides and compositions comprising them” (priority 1997, dated 2006)
Square brackets hold non-standard residues; d marks the D form. Peptide text beside a SMILES is read from it.

Tests used:
Assay type in all cases: cell-based
[1] = test system: Acinetobacter calcoaceticus Ac11; settings: 100% inhibition of growth after 18–20 h
[2] = test system: Escherichia coli D21; settings: 100% inhibition of growth after 18–20 h
[3] = test system: Bacillus megaterium Bm11; settings: 100% inhibition of growth after 18–20 h
[4] = test system: human red blood cells (hRBC); assay: Hemolysis of human red blood cells; settings: hRBC, 30 min at 37° C.
Description: (ix) Hemolysis of human red blood cells. The peptides were tested for their hemolytic activities against human red blood cells (hRBC). Fresh hRBC with EDTA were rinsed 3 times with PBS (35 mM phosphate buffer/0.15 M NaCl, pH 7.3) by centrifugation for 10 min at 800 g and resuspended in PBS. Peptides dissolved in PBS were then added to 50 μL of a solution of the stock hRBC in PBS to reach a final volume of 100 μL (final erythrocyte concentration, 5% v/v). The resulting suspension was incubated under agitation for 30 min at 37° C. The samples were then centrifuged at 800 g for 10 min. Release of hemoglobin was monitored by measuring the absorbance of the supernatant at 540 nm. Controls for zero hemolysis (blank) and 100% hemolysis consisted of hRBC suspended in PBS and Triton 1%, respectively.

Compound | Minimal Inhibitory Concentration A. calcoaceticus (Ac11) [1] | Minimal Inhibitory Concentration E. coli (D21) [2] | Minimal Inhibitory Concentration B. megaterium (Bm11) [3] | % hemolysis at 50 μM peptide [4] | % hemolysis at 100 μM [4]
CC[C@H](C)[C@H](NC(=O)[C@H](CCCCN)NC(=O)[C@H]1CCCN1C(=O)[C@@H](NC(=O)[C@H](CC(C)C)NC(=O)[C@H](C)NC(=O)[C@H](Cc1ccccc1)NC(=O)[C@H](Cc1ccccc1)NC(=O)CN)[C@@H](C)CC)C(=O)N[C@H](C(=O)N[C@@H](CO)C(=O)N[C@@H](CO)C(=O)N1CCC[C@H]1C(=O)N[C@@H](CC(C)C)C(=O)N[C@@H](Cc1ccccc1)C(=O)N[C@@H](CCCCN)C(=O)N[C@H](C(=O)N[C@H](CC(C)C)C(=O)N[C@H](CC(C)C)C(=O)N[C@@H](CO)C(=O)N[C@@H](C)C(=O)N[C@H](C(=O)NCCN)C(C)C)[C@@H](C)O)[C@@H](C)CC [Peptide 2, [D]P^7L^18L^19[1-22]-TApar] | 12.5 µM | 12.5 µM | 2.5 µM | 0% | 
CC[C@H](C)[C@H](NC(=O)[C@H](CCCCN)NC(=O)[C@H]1CCCN1C(=O)[C@@H](NC(=O)[C@H](CC(C)C)NC(=O)[C@H](C)NC(=O)[C@H](Cc1ccccc1)NC(=O)[C@H](Cc1ccccc1)NC(=O)CNC(=O)[C@@H](N)CCCCN)[C@@H](C)CC)C(=O)N[C@H](C(=O)N[C@@H](CO)C(=O)N[C@@H](CO)C(=O)N1CCC[C@H]1C(=O)N[C@@H](CC(C)C)C(=O)N[C@@H](Cc1ccccc1)C(=O)N[C@@H](CCCCN)C(=O)N[C@H](C(=O)N[C@H](CC(C)C)C(=O)N[C@H](CC(C)C)C(=O)N[C@@H](CO)C(=O)N[C@@H](C)C(=O)N[C@H](C(=O)NCCN)C(C)C)[C@@H](C)O)[C@@H](C)CC [Peptide 4, K^1[D]P^7L^18L^19[1-22]-TApar] | 7.5 µM | 7.5 µM | 1.5 µM | 0% | 
CC[C@H](C)[C@H](NC(=O)[C@H](CCCCN)NC(=O)[C@H]1CCCN1C(=O)[C@@H](NC(=O)[C@H](CC(C)C)NC(=O)[C@H](C)NC(=O)[C@H](Cc1ccccc1)NC(=O)[C@H](Cc1ccccc1)NC(=O)CNC(=O)[C@H](CCCCN)NC(=O)[C@@H](N)CCCCN)[C@@H](C)CC)C(=O)N[C@H](C(=O)N[C@@H](CO)C(=O)N[C@@H](CO)C(=O)N1CCC[C@H]1C(=O)N[C@@H](CC(C)C)C(=O)N[C@@H](Cc1ccccc1)C(=O)N[C@@H](CCCCN)C(=O)N[C@H](C(=O)N[C@H](CC(C)C)C(=O)N[C@H](CC(C)C)C(=O)N[C@@H](CO)C(=O)N[C@@H](C)C(=O)N[C@H](C(=O)NCCN)C(C)C)[C@@H](C)O)[C@@H](C)CC [Peptide 5, K^1K^2[D]P^7L^18L^19[1-22]-TApar] | 3.5 µM | 3.5 µM | 0.75 µM | 0% | 
CC(C)C[C@H](NC(=O)[C@H](CC(C)C)NC(=O)[C@@H](CC(C)C)NC(=O)[C@H](N)CCCCN)C(=O)N[C@H](CCCCN)C(=O)N[C@H](CC(C)C)C(=O)N[C@H](CC(C)C)C(=O)N[C@@H](CC(C)C)C(=O)N[C@H](CCCCN)C(=O)N[C@@H](CC(C)C)C(=O)N[C@H](CC(C)C)C(=O)N[C@H](CCCCN)C(N)=O [Peptide 26, [D]-K^1,5,9,12L^2,6,7,11-K4L8] (H-[dK][dL]LL[dK][dL][dL]L[dK]L[dL][dK]-NH2) |  | 4 µM | 0.5 µM |  | 0%
CC(C)C[C@H](NC(=O)[C@H](CC(C)C)NC(=O)[C@@H](CC(C)C)NC(=O)[C@H](N)CCCCN)C(=O)N[C@H](CCCCN)C(=O)N[C@H](CC(C)C)C(=O)N[C@H](CCCCN)C(=O)N[C@@H](CC(C)C)C(=O)N[C@H](CCCCN)C(=O)N[C@@H](CC(C)C)C(=O)N[C@H](CC(C)C)C(=O)N[C@H](CCCCN)C(N)=O [Peptide 27, [D]-K^1,5,7,9,12L^2,6,11-K5L7] (H-[dK][dL]LL[dK][dL][dK]L[dK]L[dL][dK]-NH2) |  | 7 µM | 0.2 µM |  | 0%
CC(C)C[C@H](NC(=O)[C@@H](CC(C)C)NC(=O)[C@H](CC(C)C)NC(=O)[C@@H](CC(C)C)NC(=O)[C@@H](N)CCCCN)C(=O)N[C@@H](CCCCN)C(=O)O [Peptide 28, [D]-L^2,4-K2L4] (H-K[dL]L[dL]LK-OH) |  | 200 µM | 50 µM |  | 0%
CC(C)C[C@H](NC(=O)[C@@H](CC(C)C)NC(=O)[C@H](CCCCN)NC(=O)[C@@H](CC(C)C)NC(=O)[C@H](CC(C)C)NC(=O)[C@@H](CC(C)C)NC(=O)[C@@H](N)CCCCN)C(=O)N[C@@H](CCCCN)C(=O)O [Peptide 29, [D]-L^2,4,6-K3L5] (H-K[dL]L[dL]K[dL]LK-OH) |  | 3 µM | 3 µM |  | 0%
C[C@H](NC(=O)[C@H](C)NC(=O)[C@H](CCCCN)NC(=O)[C@@H](C)NC(=O)[C@@H](C)NC(=O)[C@H](C)NC(=O)[C@@H](N)CCCCN)C(=O)N[C@H](C)C(=O)N[C@@H](CCCCN)C(=O)N[C@H](C)C(=O)N[C@@H](C)C(=O)N[C@@H](CCCCN)C(N)=O [Peptide 33, [D]-A^3,4,8,10-K4A8] (H-KA[dA][dA]KAA[dA]K[dA]AK-NH2) |  | 12 µM | 1 µM |  | 0%
CC(C)[C@H](NC(=O)[C@H](CCCCN)NC(=O)[C@H](NC(=O)[C@H](NC(=O)[C@@H](NC(=O)[C@@H](N)CCCCN)C(C)C)C(C)C)C(C)C)C(=O)N[C@H](C(=O)N[C@@H](C(=O)N[C@@H](CCCCN)C(=O)N[C@@H](C(=O)N[C@H](C(=O)N[C@@H](CCCCN)C(N)=O)C(C)C)C(C)C)C(C)C)C(C)C [Peptide 34, [D]-V^3,4,8,10-K4V8] (H-KV[dV][dV]KVV[dV]K[dV]VK-NH2) |  | 3.5 µM | 0.8 µM |  | 0%
CC[C@H](C)[C@@H]1NC(=O)[C@H](CCCCN)NC(=O)[C@H]2CCCN2C(=O)[C@H]([C@@H](C)CC)NC(=O)[C@H](CC(C)C)NC(=O)[C@H](C)NC(=O)[C@H](Cc2ccccc2)NC(=O)[C@H](Cc2ccccc2)NC(=O)CNC(=O)[C@H](CCCCN)NC(=O)[C@@H](N)CSSC[C@@H](C(=O)O)NC(=O)[C@H](C(C)C)NC(=O)[C@H](C)NC(=O)[C@H](CO)NC(=O)[C@@H](CC(C)C)NC(=O)[C@@H](CC(C)C)NC(=O)[C@H]([C@@H](C)O)NC(=O)[C@H](CCCCN)NC(=O)[C@H](Cc2ccccc2)NC(=O)[C@H](CC(C)C)NC(=O)[C@@H]2CCCN2C(=O)[C@H](CO)NC(=O)[C@H](CO)NC(=O)[C@H]([C@@H](C)CC)NC1=O [Peptide 86, Cyclic K^1[D]P^7L^18L^19[1-22]-par] |  | 30 µM | 10 µM |  | 0%
CC[C@H](C)[C@@H]1NC(=O)[C@H](CCCCN)NC(=O)[C@H]2CCCN2C(=O)[C@H]([C@@H](C)CC)NC(=O)[C@H](CC(C)C)NC(=O)[C@H](C)NC(=O)[C@H](Cc2ccccc2)NC(=O)[C@H](Cc2ccccc2)NC(=O)CNC(=O)[C@H](CCCCN)NC(=O)[C@H](CCCCN)NC(=O)[C@@H](N)CSSC[C@@H](C(=O)O)NC(=O)[C@H](C(C)C)NC(=O)[C@H](C)NC(=O)[C@H](CO)NC(=O)[C@@H](CC(C)C)NC(=O)[C@@H](CC(C)C)NC(=O)[C@H]([C@@H](C)O)NC(=O)[C@H](CCCCN)NC(=O)[C@H](Cc2ccccc2)NC(=O)[C@H](CC(C)C)NC(=O)[C@@H]2CCCN2C(=O)[C@H](CO)NC(=O)[C@H](CO)NC(=O)[C@H]([C@@H](C)CC)NC1=O [Peptide 87, Cyclic K^1K^2[D]P^7L^18L^19[1-22]-par] |  | 15 µM | 6 µM |  | 0%
CC[C@H](C)[C@@H]1NC(=O)[C@H](CCCCN)NC(=O)[C@H]2CCCN2C(=O)[C@H]([C@@H](C)CC)NC(=O)[C@H](CC(C)C)NC(=O)[C@H](C)NC(=O)[C@H](Cc2ccccc2)NC(=O)[C@H](Cc2ccccc2)NC(=O)CNC(=O)[C@H](CCCCN)NC(=O)[C@H](CCCCN)NC(=O)[C@H](CCCCN)NC(=O)[C@@H](N)CSSC[C@@H](C(=O)O)NC(=O)[C@H](C(C)C)NC(=O)[C@H](C)NC(=O)[C@H](CO)NC(=O)[C@@H](CC(C)C)NC(=O)[C@@H](CC(C)C)NC(=O)[C@H]([C@@H](C)O)NC(=O)[C@H](CCCCN)NC(=O)[C@H](Cc2ccccc2)NC(=O)[C@H](CC(C)C)NC(=O)[C@@H]2CCCN2C(=O)[C@H](CO)NC(=O)[C@H](CO)NC(=O)[C@H]([C@@H](C)CC)NC1=O [Peptide 88, Cyclic K^1K^2K^3[D]P^7L^18L^19[1-22]-par] |  | 7.5 µM | 2 µM |  | 0%
